Laboratory results from patent US7956059B2, “Aliphatic amide and ester pyrazinoylguanidine sodium channel blockers” (Parion Sciences, Inc., priority 2004, dated 2011).
Where “and” joins values, the source holds several entries; their conditions need not be identical. Equal entries are not always repeated. Structures can show the parent of a compound that is named as a salt.

SMILES	melting point
CN(C)CCCNC(=O)CCCCCCCCCCN(C(=N)N)C(=O)c1nc(Cl)c(N)nc1N (as salt: salt) [ALB 27160, 11-[N-(3,5-Diamino-6-chloropyrazine-2-carbonyl)guanidino]undecanoic acid (3-dimethylaminopropyl)amide]	52 to 56 °C
N=C(NCCCCCCCCCCCC(=O)N1CCNCC1)NC(=O)c1nc(Cl)c(N)nc1N (as salt: hydrochloride) [ALB 27069, N-(3,5-Diamino-6-chloropyrazine-2-carbonyl)-N′-(12-oxo-12-piperazin-1-yl-dodecyl)guanidine dihydrochloride]	148 to 150 °C
N=C(NCCCCCCCCCCCC(=O)O)NC(=O)c1nc(Cl)c(N)nc1N [ALB 26799, 12-[N′-(3,5-diamino-6-chloropyrazine-2-carbonyl)guanidino]-dodecanoic acid]	194 to 196 °C and 192 to 194 °C
N=C(N)N(CCCCCCCCCCC(N)=O)C(=O)c1nc(Cl)c(N)nc1N [ALB 27317, 11-[N-(3,5-Diamino-6-chloropyrazine-2-carbonyl)guanidino]undecanoic acid amide]	69 to 72 °C
NC(=NC(=O)c1nc(Cl)c(N)nc1N)NCCCCCCCCCCCC(=O)Nc1ncc[nH]1 [ALB 27070, 12-[N′-(3,5-Diamino-6-chloropyrazine-2-carbonyl)guanidino]dodecanoic acid (1H-imidazol-2-yl)amide]	102 to 104 °C
N=C(N)N(CCCCCCCCCCC(=O)O)C(=O)c1nc(Cl)c(N)nc1N [ALB 26795, 11-[N-(3,5-Diamino-6-chloropyrazine-2-carbonyl)guanidino]undecanoic acid]	181 to 191 °C
CN(C)CCCNC(=O)CCCCCCCCCCCNC(N)=NC(=O)c1nc(Cl)c(N)nc1N [ALB 26982, 12-[N′-(3,5-Diamino-6-chloropyrazine-2-carbonyl)guanidino]dodecanoic acid (3-dimethylaminopropyl)amide]	82 to 84 °C
